Measured values reported in PubChem BioAssay (NCI).
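Test compounds were applied to cells in 96-well plates for 48 hours at 5 doses. GI50 is the concentration that inhibits growth by half. Definition used: TGI = concentration required for complete inhibition of growth.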

Legend:
Assay in all cases: DTP human tumour cell line panel, 48 h
786-0 renal = tested on: 786-0 renal
A498 renal = tested on: A498 renal
A549 NSCLC = tested on: A549 NSCLC
ACHN renal = tested on: ACHN renal
BT-549 breast = tested on: BT-549 breast
CAKI-1 renal = tested on: CAKI-1 renal
CCRF-CEM leukemia = tested on: CCRF-CEM leukemia
COLO 205 colon = tested on: COLO 205 colon
DU-145 prostate = tested on: DU-145 prostate
EKVX NSCLC = tested on: EKVX NSCLC
HCC-2998 colon = tested on: HCC-2998 colon
HCT-116 colon = tested on: HCT-116 colon
HCT-15 colon = tested on: HCT-15 colon
HL-60(TB) leukemia = tested on: HL-60(TB) leukemia
HOP-62 NSCLC = tested on: HOP-62 NSCLC
HOP-92 NSCLC = tested on: HOP-92 NSCLC
HS 578T breast = tested on: HS 578T breast
HT29 colon = tested on: HT29 colon
IGROV1 ovarian = tested on: IGROV1 ovarian
K-562 leukemia = tested on: K-562 leukemia
KM12 colon = tested on: KM12 colon
LOX IMVI melanoma = tested on: LOX IMVI melanoma
M14 melanoma = tested on: M14 melanoma
MALME-3M melanoma = tested on: MALME-3M melanoma
MCF7 breast = tested on: MCF7 breast
MDA-MB-231 breast = tested on: MDA-MB-231 breast
MDA-MB-435 = tested on: MDA-MB-435
MOLT-4 leukemia = tested on: MOLT-4 leukemia
NCI-H226 lung = tested on: NCI-H226 lung
NCI-H23 lung = tested on: NCI-H23 lung
NCI-H460 lung = tested on: NCI-H460 lung
NCI-H522 lung = tested on: NCI-H522 lung
NCI/ADR-RES ovarian = tested on: NCI/ADR-RES ovarian
OVCAR-3 ovarian = tested on: OVCAR-3 ovarian
OVCAR-4 ovarian = tested on: OVCAR-4 ovarian
OVCAR-5 ovarian = tested on: OVCAR-5 ovarian
OVCAR-8 ovarian = tested on: OVCAR-8 ovarian
PC-3 prostate = tested on: PC-3 prostate
RPMI-8226 leukemia = tested on: RPMI-8226 leukemia
RXF 393 renal = tested on: RXF 393 renal
SF-268 CNS = tested on: SF-268 CNS
SF-295 CNS = tested on: SF-295 CNS
SF-539 CNS = tested on: SF-539 CNS
SK-MEL-2 melanoma = tested on: SK-MEL-2 melanoma
SK-MEL-28 melanoma = tested on: SK-MEL-28 melanoma
SK-MEL-5 melanoma = tested on: SK-MEL-5 melanoma
SK-OV-3 ovarian = tested on: SK-OV-3 ovarian
SN12C renal = tested on: SN12C renal
SNB-19 CNS = tested on: SNB-19 CNS
SNB-75 CNS = tested on: SNB-75 CNS
SR leukemia = tested on: SR leukemia
SW-620 colon = tested on: SW-620 colon
T-47D breast = tested on: T-47D breast
TK-10 renal = tested on: TK-10 renal
U251 CNS = tested on: U251 CNS
UACC-257 melanoma = tested on: UACC-257 melanoma
UACC-62 melanoma = tested on: UACC-62 melanoma
UO-31 renal = tested on: UO-31 renal

For `CSc1nc(N)cc(Oc2ccc(-c3nc(Nc4cccc(C(F)(F)F)c4)n[nH]3)cc2)n1`, which GI50 (786-0 renal) is on record?
Its GI50 is 1280 nM.

And the TGI (786-0 renal)?
Its TGI is 4.86 µM.

And the GI50 (A498 renal)?
Its GI50 is 486 nM.

What about the TGI (A498 renal) of the same compound?
The TGI was 5.25 µM.

What about the GI50 (A549 NSCLC) of the same compound?
Its GI50 is 737 nM.

And the TGI (A549 NSCLC)?
The TGI was 9.51 µM.

And the GI50 (ACHN renal)?
The GI50 was 873 nM.

What about the TGI (ACHN renal) of the same compound?
The TGI was 9.64 µM.

And the GI50 (BT-549 breast)?
The GI50 was 721 nM.

What about the TGI (BT-549 breast) of the same compound?
Its TGI is 6.82 µM.

And the GI50 (CAKI-1 renal)?
Its GI50 is 640 nM.

What about the TGI (CAKI-1 renal) of the same compound?
Its TGI is 3.67 µM.

What about the GI50 (CCRF-CEM leukemia) of the same compound?
The GI50 was 773 nM.

And the TGI (CCRF-CEM leukemia)?
Its TGI is > 43.5 µM.

What about the GI50 (COLO 205 colon) of the same compound?
The GI50 was 897 nM.

And the TGI (COLO 205 colon)?
Its TGI is 4.05 µM.

What about the GI50 (DU-145 prostate) of the same compound?
Its GI50 is 1280 nM.

What about the TGI (DU-145 prostate) of the same compound?
The TGI was 9.53 µM.

And the GI50 (EKVX NSCLC)?
Its GI50 is 1660 nM.

What about the TGI (EKVX NSCLC) of the same compound?
The TGI was 10.1 µM.

What about the GI50 (HCC-2998 colon) of the same compound?
The GI50 was 1330 nM.

What about the TGI (HCC-2998 colon) of the same compound?
Its TGI is 4.96 µM.

What about the GI50 (HCT-116 colon) of the same compound?
The GI50 was 456 nM.

And the TGI (HCT-116 colon)?
The TGI was 2150 nM.

What about the GI50 (HCT-15 colon) of the same compound?
The GI50 was 531 nM.

What about the TGI (HCT-15 colon) of the same compound?
Its TGI is 8.07 µM.

And the GI50 (HL-60(TB) leukemia)?
The GI50 was 2360 nM.

What about the TGI (HL-60(TB) leukemia) of the same compound?
Its TGI is 9.23 µM.

What about the GI50 (HOP-62 NSCLC) of the same compound?
Its GI50 is 593 nM.

What about the TGI (HOP-62 NSCLC) of the same compound?
Its TGI is 4.99 µM.

And the GI50 (HOP-92 NSCLC)?
Its GI50 is 1300 nM.

What about the TGI (HOP-92 NSCLC) of the same compound?
Its TGI is 6 µM.

And the GI50 (HS 578T breast)?
The GI50 was 642 nM.

What about the TGI (HS 578T breast) of the same compound?
The TGI was 9.29 µM.

And the GI50 (HT29 colon)?
The GI50 was 432 nM.

What about the TGI (HT29 colon) of the same compound?
Its TGI is 2710 nM.

And the GI50 (IGROV1 ovarian)?
Its GI50 is 1880 nM.

What about the TGI (IGROV1 ovarian) of the same compound?
Its TGI is 18.3 µM.

What about the GI50 (K-562 leukemia) of the same compound?
Its GI50 is 522 nM.

And the TGI (K-562 leukemia)?
Its TGI is > 35.3 µM.

And the GI50 (KM12 colon)?
Its GI50 is 498 nM.

And the TGI (KM12 colon)?
The TGI was 4.46 µM.

And the GI50 (LOX IMVI melanoma)?
The GI50 was 520 nM.

And the TGI (LOX IMVI melanoma)?
The TGI was 2050 nM.

What about the GI50 (M14 melanoma) of the same compound?
The GI50 was 483 nM.

And the TGI (M14 melanoma)?
The TGI was 3.85 µM.

And the GI50 (MALME-3M melanoma)?
The GI50 was 1190 nM.

And the TGI (MALME-3M melanoma)?
The TGI was 8.42 µM.

And the GI50 (MCF7 breast)?
The GI50 was 357 nM.

And the TGI (MCF7 breast)?
The TGI was 5.02 µM.

And the GI50 (MDA-MB-231 breast)?
The GI50 was 1790 nM.

And the TGI (MDA-MB-231 breast)?
Its TGI is 8.63 µM.

And the GI50 (MDA-MB-435)?
The GI50 was 255 nM.

And the TGI (MDA-MB-435)?
Its TGI is 744 nM.

And the GI50 (MOLT-4 leukemia)?
The GI50 was 1250 nM.

And the TGI (MOLT-4 leukemia)?
Its TGI is > 38.4 µM.

What about the GI50 (NCI-H226 lung) of the same compound?
The GI50 was 1810 nM.

And the TGI (NCI-H226 lung)?
The TGI was 7.69 µM.

What about the GI50 (NCI-H23 lung) of the same compound?
The GI50 was 893 nM.

And the TGI (NCI-H23 lung)?
Its TGI is 10.2 µM.

And the GI50 (NCI-H460 lung)?
Its GI50 is 440 nM.

And the TGI (NCI-H460 lung)?
The TGI was 3.03 µM.

What about the GI50 (NCI-H522 lung) of the same compound?
The GI50 was 651 nM.

And the TGI (NCI-H522 lung)?
The TGI was 4.06 µM.

And the GI50 (NCI/ADR-RES ovarian)?
Its GI50 is 1110 nM.

What about the TGI (NCI/ADR-RES ovarian) of the same compound?
Its TGI is 7.45 µM.

What about the GI50 (OVCAR-3 ovarian) of the same compound?
The GI50 was 336 nM.

And the TGI (OVCAR-3 ovarian)?
Its TGI is 1220 nM.

What about the GI50 (OVCAR-4 ovarian) of the same compound?
Its GI50 is 2060 nM.

And the TGI (OVCAR-4 ovarian)?
The TGI was 13.1 µM.

And the GI50 (OVCAR-5 ovarian)?
The GI50 was 2380 nM.

What about the TGI (OVCAR-5 ovarian) of the same compound?
The TGI was 14.6 µM.

What about the GI50 (OVCAR-8 ovarian) of the same compound?
Its GI50 is 1360 nM.

And the TGI (OVCAR-8 ovarian)?
Its TGI is 10.3 µM.

What about the GI50 (PC-3 prostate) of the same compound?
The GI50 was 1130 nM.

And the TGI (PC-3 prostate)?
The TGI was 9.41 µM.

And the GI50 (RPMI-8226 leukemia)?
The GI50 was 1900 nM.

What about the TGI (RPMI-8226 leukemia) of the same compound?
The TGI was 12.6 µM.

What about the GI50 (RXF 393 renal) of the same compound?
Its GI50 is 504 nM.

What about the TGI (RXF 393 renal) of the same compound?
Its TGI is 2250 nM.

What about the GI50 (SF-268 CNS) of the same compound?
Its GI50 is 894 nM.

And the TGI (SF-268 CNS)?
Its TGI is 12.5 µM.

And the GI50 (SF-295 CNS)?
The GI50 was 784 nM.

What about the TGI (SF-295 CNS) of the same compound?
The TGI was 6.24 µM.

What about the GI50 (SF-539 CNS) of the same compound?
Its GI50 is 621 nM.

And the TGI (SF-539 CNS)?
Its TGI is 4.19 µM.

What about the GI50 (SK-MEL-2 melanoma) of the same compound?
Its GI50 is 789 nM.

What about the TGI (SK-MEL-2 melanoma) of the same compound?
The TGI was 6.06 µM.

What about the GI50 (SK-MEL-28 melanoma) of the same compound?
The GI50 was 1460 nM.

And the TGI (SK-MEL-28 melanoma)?
Its TGI is 10.4 µM.

What about the GI50 (SK-MEL-5 melanoma) of the same compound?
The GI50 was 416 nM.

What about the TGI (SK-MEL-5 melanoma) of the same compound?
The TGI was 1570 nM.

What about the GI50 (SK-OV-3 ovarian) of the same compound?
The GI50 was 516 nM.

And the TGI (SK-OV-3 ovarian)?
The TGI was 3.93 µM.

And the GI50 (SN12C renal)?
Its GI50 is 1150 nM.

And the TGI (SN12C renal)?
Its TGI is 12.3 µM.

What about the GI50 (SNB-19 CNS) of the same compound?
Its GI50 is 1220 nM.

What about the TGI (SNB-19 CNS) of the same compound?
The TGI was 14.9 µM.

What about the GI50 (SNB-75 CNS) of the same compound?
Its GI50 is 371 nM.

What about the TGI (SNB-75 CNS) of the same compound?
Its TGI is 4.46 µM.

What about the GI50 (SR leukemia) of the same compound?
The GI50 was 354 nM.

And the TGI (SR leukemia)?
The TGI was > 100 µM.

What about the GI50 (SW-620 colon) of the same compound?
Its GI50 is 478 nM.

And the TGI (SW-620 colon)?
Its TGI is 13.6 µM.

What about the GI50 (T-47D breast) of the same compound?
The GI50 was 810 nM.

What about the TGI (T-47D breast) of the same compound?
The TGI was 5.11 µM.

And the GI50 (TK-10 renal)?
Its GI50 is 1540 nM.

And the TGI (TK-10 renal)?
Its TGI is 7.73 µM.

And the GI50 (U251 CNS)?
The GI50 was 548 nM.

What about the TGI (U251 CNS) of the same compound?
The TGI was 4.73 µM.

And the GI50 (UACC-257 melanoma)?
Its GI50 is 776 nM.

What about the TGI (UACC-257 melanoma) of the same compound?
The TGI was 6.34 µM.

And the GI50 (UACC-62 melanoma)?
Its GI50 is 474 nM.

And the TGI (UACC-62 melanoma)?
Its TGI is 4.72 µM.

And the GI50 (UO-31 renal)?
The GI50 was 1600 nM.

And the TGI (UO-31 renal)?
Its TGI is 11.3 µM.
